Legend:
[1] = target: AKT1 (Homo sapiens, UniProt P31749); details: 1 mM ATP; inhibitor
Method: (§1) Kinase selectivity panel Kinome profiling was conducted by AssayQuant Technologies (Marlboro, MA) using Sox chromophore technology and Sox-based peptide substrates developed for human kinases in a 384-well format. Compounds were tested at 1 µM in the presence of 1 mM ATP.

[2] = target: AURKA/AURA (Homo sapiens, UniProt O14965); details: 1 mM ATP; inhibitor
Method: as §1

[3] = target: AURKB/AURB (Homo sapiens, UniProt Q96GD4); details: 1 mM ATP; inhibitor
Method: as §1

[4] = target: CAMK1D (Homo sapiens, UniProt Q8IU85); details: 1 mM ATP; inhibitor
Method: as §1

[5] = target: CDC42BPG/DMPK2 (Homo sapiens, UniProt Q6DT37); details: 1 mM ATP; inhibitor
Method: as §1

[6] = target: CDK1/B1 (Homo sapiens, UniProt P06493); details: 1 mM ATP; inhibitor
Method: as §1

[7] = target: CSNK1E/CK1E (Homo sapiens, UniProt P49674); details: 1 mM ATP; inhibitor
Method: as §1

[8] = target: T1, DMPK1 (Homo sapiens, UniProt Q09013); details: 1 mM ATP; inhibitor
T1 construct: gene DMPK
Method: as §1

[9] = target: EPHB3 (Homo sapiens, UniProt P54753); details: 1 mM ATP; inhibitor
Method: as §1

[10] = target: FLT3 (Homo sapiens, UniProt P36888); details: 1 mM ATP; inhibitor
Method: as §1

[11] = target: GRK7 (Homo sapiens, UniProt Q8WTQ7); details: 1 mM ATP; inhibitor
Method: as §1

[12] = target: HCK (Homo sapiens, UniProt P08631); details: 1 mM ATP; inhibitor
Method: as §1

[13] = target: JAK2(JH1) (Homo sapiens, UniProt O60674); details: 1 mM ATP; inhibitor
Method: as §1

[14] = target: KSR1 (Homo sapiens, UniProt Q8IVT5); details: 1 mM ATP; inhibitor
Method: as §1

[15] = target: MAP4K4/HGK (Homo sapiens, UniProt O95819); details: 1 mM ATP; inhibitor
Method: as §1

[16] = target: MAPK12/P38G (Homo sapiens, UniProt P53778); details: 1 mM ATP; inhibitor
Method: as §1

[17] = target: MARK2 (Homo sapiens, UniProt Q7KZI7); details: 1 mM ATP; inhibitor
Method: as §1

[18] = target: T2, MNK2 (Homo sapiens, UniProt Q9HBH9); details: 1 mM ATP; inhibitor
T2 construct: gene MKNK2
Method: as §1

[19] = target: NEK2 (Homo sapiens, UniProt P51955); details: 1 mM ATP; inhibitor
Method: as §1

[20] = target: T3, NIM1 (Homo sapiens, UniProt Q8IY84); details: 1 mM ATP; inhibitor
T3 construct: gene NIM1K
Method: as §1

[21] = target: PAK3 (Homo sapiens, UniProt O75914); details: 1 mM ATP; inhibitor
Method: as §1

[22] = target: PAK6 (Homo sapiens, UniProt Q9NQU5); details: 1 mM ATP; inhibitor
Method: as §1

[23] = target: PINK1 (Homo sapiens, UniProt Q9BXM7); details: 1 mM ATP; inhibitor
Method: as §1

[24] = target: PRKCA/PKCA (Homo sapiens, UniProt P17252); details: 1 mM ATP; inhibitor
Method: as §1

[25] = target: PRKCZ/PKCZ (Homo sapiens, UniProt Q05513); details: 1 mM ATP; inhibitor
Method: as §1

[26] = target: SIK2 (Homo sapiens, UniProt Q9H0K1); details: 1 mM ATP; inhibitor
Method: as §1

[27] = target: STK4/MST1 (Homo sapiens, UniProt Q13043); details: 1 mM ATP; inhibitor
Method: as §1

[28] = target: DYRK1B (Homo sapiens, UniProt Q9Y463); test: biochemical; details: read-out: 1 µM GBD# (ibrutinib), % inhibition
[29] = target: LTK (Homo sapiens, UniProt P29376); test: biochemical; details: read-out: 1 µM GBD# (ibrutinib), % inhibition
[30] = target: STK33 (Homo sapiens, UniProt Q9BYT3); test: biochemical; details: read-out: 1 µM GBD# (ibrutinib), % inhibition
[31] = target: TTBK1 (Homo sapiens, UniProt Q5TCY1); test: biochemical; details: read-out: 1 µM GBD# (ibrutinib), % inhibition

Chain of PAK3 (O75914 whole entry): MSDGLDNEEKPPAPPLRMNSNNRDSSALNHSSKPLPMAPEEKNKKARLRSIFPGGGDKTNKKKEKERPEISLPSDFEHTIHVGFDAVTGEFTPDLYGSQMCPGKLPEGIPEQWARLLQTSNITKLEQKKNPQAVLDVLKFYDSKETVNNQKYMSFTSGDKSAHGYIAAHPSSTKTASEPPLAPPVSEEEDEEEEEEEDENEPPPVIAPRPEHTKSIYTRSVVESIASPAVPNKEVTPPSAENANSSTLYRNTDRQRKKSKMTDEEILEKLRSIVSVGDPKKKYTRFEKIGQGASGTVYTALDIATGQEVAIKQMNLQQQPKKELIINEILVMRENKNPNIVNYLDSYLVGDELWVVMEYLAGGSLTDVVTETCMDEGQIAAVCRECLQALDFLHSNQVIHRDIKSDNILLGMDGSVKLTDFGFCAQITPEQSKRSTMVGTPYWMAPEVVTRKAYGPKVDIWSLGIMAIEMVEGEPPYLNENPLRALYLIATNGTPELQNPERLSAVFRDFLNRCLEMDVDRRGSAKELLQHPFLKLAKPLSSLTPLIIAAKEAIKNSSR
Chain of MAPK12/P38G (P53778 whole entry): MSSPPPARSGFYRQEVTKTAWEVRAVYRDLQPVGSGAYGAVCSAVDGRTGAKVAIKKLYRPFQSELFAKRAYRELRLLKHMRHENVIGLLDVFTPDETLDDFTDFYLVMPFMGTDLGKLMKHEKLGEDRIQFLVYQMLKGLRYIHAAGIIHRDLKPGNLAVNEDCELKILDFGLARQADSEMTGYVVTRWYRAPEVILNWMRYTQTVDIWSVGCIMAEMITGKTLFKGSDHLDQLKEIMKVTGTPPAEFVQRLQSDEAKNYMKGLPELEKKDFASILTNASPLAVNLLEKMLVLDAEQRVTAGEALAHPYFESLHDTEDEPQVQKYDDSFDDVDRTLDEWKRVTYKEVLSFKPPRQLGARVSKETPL
T3 sequence (Q8IY84 whole entry): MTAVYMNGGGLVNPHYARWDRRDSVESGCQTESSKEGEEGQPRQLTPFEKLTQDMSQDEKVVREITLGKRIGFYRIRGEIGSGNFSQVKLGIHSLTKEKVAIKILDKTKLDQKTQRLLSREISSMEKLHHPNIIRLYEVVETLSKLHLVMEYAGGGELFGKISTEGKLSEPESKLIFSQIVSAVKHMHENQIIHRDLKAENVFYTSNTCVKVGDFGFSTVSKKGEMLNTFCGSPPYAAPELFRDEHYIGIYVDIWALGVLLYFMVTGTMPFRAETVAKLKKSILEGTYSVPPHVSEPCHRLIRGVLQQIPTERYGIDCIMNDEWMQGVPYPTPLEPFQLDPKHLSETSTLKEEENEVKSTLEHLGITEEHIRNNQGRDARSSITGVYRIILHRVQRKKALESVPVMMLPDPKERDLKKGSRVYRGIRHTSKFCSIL
Chain of CAMK1D (Q8IU85 whole entry): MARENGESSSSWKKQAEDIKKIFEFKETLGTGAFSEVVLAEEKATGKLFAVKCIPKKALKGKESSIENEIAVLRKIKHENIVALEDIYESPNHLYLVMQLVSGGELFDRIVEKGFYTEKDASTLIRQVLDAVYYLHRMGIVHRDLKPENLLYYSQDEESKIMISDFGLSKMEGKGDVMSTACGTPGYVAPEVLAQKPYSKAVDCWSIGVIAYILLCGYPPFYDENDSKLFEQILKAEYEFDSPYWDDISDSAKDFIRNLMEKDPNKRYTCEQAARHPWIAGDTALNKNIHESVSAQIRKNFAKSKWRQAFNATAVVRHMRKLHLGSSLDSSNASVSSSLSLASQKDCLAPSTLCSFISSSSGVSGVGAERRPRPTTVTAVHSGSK
Chain of EPHB3 (P54753 whole entry): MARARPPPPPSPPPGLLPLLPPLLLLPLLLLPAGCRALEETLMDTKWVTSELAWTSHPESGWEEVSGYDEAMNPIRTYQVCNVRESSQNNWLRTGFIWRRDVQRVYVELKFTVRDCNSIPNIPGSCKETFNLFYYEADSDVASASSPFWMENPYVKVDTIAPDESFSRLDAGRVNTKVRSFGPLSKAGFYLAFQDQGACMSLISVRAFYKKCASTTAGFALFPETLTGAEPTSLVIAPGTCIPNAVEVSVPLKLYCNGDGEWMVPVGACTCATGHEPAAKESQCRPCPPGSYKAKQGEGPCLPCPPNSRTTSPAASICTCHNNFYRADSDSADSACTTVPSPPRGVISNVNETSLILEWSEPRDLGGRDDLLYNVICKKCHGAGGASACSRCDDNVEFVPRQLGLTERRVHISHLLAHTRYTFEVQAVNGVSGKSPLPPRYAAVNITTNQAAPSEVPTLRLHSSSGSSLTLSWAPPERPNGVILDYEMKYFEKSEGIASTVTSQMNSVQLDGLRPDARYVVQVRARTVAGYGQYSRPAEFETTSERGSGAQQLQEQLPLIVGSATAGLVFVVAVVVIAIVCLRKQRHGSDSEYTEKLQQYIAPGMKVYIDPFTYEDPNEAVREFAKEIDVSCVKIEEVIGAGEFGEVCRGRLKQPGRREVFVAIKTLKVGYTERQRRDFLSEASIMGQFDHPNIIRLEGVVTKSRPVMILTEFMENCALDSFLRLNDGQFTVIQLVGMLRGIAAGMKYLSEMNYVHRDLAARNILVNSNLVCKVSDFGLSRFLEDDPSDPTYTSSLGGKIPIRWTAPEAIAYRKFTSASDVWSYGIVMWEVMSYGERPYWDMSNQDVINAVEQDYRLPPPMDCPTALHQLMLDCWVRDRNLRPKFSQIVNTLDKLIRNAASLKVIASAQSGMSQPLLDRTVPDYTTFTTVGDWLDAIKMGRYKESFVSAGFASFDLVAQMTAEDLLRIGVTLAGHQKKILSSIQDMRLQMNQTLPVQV
Chain of KSR1 (Q8IVT5 whole entry): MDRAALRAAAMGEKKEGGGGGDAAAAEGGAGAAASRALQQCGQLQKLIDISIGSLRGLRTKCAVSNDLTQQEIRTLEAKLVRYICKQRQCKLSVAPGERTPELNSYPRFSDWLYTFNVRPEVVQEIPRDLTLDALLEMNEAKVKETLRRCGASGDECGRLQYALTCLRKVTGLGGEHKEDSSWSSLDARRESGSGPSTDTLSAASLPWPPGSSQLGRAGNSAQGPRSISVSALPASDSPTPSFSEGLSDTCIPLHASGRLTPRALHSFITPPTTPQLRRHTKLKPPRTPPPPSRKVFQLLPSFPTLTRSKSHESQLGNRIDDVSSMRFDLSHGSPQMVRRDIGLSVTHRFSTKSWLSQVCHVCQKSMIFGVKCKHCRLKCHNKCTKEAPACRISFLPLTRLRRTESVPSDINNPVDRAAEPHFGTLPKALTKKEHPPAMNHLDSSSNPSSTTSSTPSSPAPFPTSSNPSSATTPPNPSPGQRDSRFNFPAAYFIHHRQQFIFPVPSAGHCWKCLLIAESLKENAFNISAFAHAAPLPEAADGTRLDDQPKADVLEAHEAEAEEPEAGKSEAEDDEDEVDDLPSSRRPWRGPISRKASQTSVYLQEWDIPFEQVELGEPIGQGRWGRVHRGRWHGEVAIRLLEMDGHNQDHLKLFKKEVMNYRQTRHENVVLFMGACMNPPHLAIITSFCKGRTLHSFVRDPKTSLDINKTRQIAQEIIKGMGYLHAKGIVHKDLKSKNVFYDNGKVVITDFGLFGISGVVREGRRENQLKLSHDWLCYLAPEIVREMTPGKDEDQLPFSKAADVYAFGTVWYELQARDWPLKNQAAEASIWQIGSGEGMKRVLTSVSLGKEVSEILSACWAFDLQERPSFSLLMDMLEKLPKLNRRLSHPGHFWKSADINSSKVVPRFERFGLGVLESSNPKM
Chain of PAK6 (Q9NQU5 whole entry): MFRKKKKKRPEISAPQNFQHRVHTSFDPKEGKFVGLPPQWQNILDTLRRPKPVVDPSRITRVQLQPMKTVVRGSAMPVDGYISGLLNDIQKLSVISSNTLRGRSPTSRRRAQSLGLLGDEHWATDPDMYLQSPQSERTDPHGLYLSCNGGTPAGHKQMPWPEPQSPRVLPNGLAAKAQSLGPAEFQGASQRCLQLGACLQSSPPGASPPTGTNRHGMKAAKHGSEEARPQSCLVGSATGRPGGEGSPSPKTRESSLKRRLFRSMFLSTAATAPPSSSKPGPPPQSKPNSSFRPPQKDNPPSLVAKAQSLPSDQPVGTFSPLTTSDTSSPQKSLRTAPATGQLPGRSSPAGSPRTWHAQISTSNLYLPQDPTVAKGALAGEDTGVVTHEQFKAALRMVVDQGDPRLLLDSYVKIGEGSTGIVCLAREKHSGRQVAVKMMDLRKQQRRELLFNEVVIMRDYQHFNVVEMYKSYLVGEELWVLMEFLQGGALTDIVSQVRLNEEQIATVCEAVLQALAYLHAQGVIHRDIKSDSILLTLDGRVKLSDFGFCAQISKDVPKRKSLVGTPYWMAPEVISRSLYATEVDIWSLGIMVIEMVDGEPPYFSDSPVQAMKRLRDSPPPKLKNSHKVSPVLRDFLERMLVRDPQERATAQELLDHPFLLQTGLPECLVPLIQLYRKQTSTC
Chain of STK4/MST1 (Q13043 whole entry): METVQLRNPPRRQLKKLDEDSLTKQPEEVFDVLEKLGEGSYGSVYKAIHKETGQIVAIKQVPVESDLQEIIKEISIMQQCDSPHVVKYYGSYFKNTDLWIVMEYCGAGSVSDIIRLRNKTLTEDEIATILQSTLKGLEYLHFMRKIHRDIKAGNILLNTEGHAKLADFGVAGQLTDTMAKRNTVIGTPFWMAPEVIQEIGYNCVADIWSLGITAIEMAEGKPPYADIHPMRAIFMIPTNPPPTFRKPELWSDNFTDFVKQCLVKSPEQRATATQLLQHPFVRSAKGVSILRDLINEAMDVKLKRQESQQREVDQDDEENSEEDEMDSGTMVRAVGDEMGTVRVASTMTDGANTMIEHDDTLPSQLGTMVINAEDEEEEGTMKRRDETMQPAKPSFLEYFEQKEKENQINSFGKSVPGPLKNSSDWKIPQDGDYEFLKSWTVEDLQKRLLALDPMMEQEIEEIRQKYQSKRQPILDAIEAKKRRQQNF

## C=CC(=O)N1CCC[C@@H](n2nc(-c3ccc(Oc4ccccc4)cc3)c3c(N)ncnc32)C1 [Ibrutinib]
[1]
  1 µM GBD00276 (ibrutinib), % inhibition: 16.85%
[2]
  1 µM GBD00276 (ibrutinib), % inhibition: 11.52%
[3]
  1 µM GBD00276 (ibrutinib), % inhibition: 7.598%
[4]
  1 µM GBD00276 (ibrutinib), % inhibition: 1.984%
[5]
  1 µM GBD00276 (ibrutinib), % inhibition: -2.51%
[6]
  1 µM GBD00276 (ibrutinib), % inhibition: -7.635%
[7]
  1 µM GBD00276 (ibrutinib), % inhibition: 22.68%
[8]
  1 µM GBD00276 (ibrutinib), % inhibition: -2.197%
[9]
  1 µM GBD00276 (ibrutinib), % inhibition: 8.156%
[10]
  1 µM GBD00276 (ibrutinib), % inhibition: 20.23%
[11]
  1 µM GBD00276 (ibrutinib), % inhibition: 3.056%
[12]
  1 µM GBD00276 (ibrutinib), % inhibition: 42.82%
[13]
  1 µM GBD00276 (ibrutinib), % inhibition: 4.378%
[14]
  1 µM GBD00276 (ibrutinib), % inhibition: 8.4%
[15]
  1 µM GBD00276 (ibrutinib), % inhibition: -8.478%
[16]
  1 µM GBD00276 (ibrutinib), % inhibition: 1.971%
[17]
  1 µM GBD00276 (ibrutinib), % inhibition: 4.287%
[18]
  1 µM GBD00276 (ibrutinib), % inhibition: -1.826%
[19]
  1 µM GBD00276 (ibrutinib), % inhibition: 2.418%
[20]
  1 µM GBD00276 (ibrutinib), % inhibition: 12.91%
[21]
  1 µM GBD00276 (ibrutinib), % inhibition: 14.04%
[22]
  1 µM GBD00276 (ibrutinib), % inhibition: 14.55%
[23]
  1 µM GBD00276 (ibrutinib), % inhibition: -6.021%
[24]
  1 µM GBD00276 (ibrutinib), % inhibition: 14.87%
[25]
  1 µM GBD00276 (ibrutinib), % inhibition: 7.244%
[26]
  1 µM GBD00276 (ibrutinib), % inhibition: -7.577%
[27]
  1 µM GBD00276 (ibrutinib), % inhibition: -13.54%
[28]
  inhibition at 1 µM: 18%
[29]
  inhibition at 1 µM: -5.01%
[30]
  inhibition at 1 µM: 3.6%
[31]
  inhibition at 1 µM: 8.89%

— paper PMC10337138 (Acta Neuropathologica Communications, 2023)
